{"source": "paper PMC5454942", "about": "“The Potential of Triterpenoids from Loquat Leaves (Eriobotrya japonica) for Prevention and Treatment of Skin Disorder” (International Journal of Molecular Sciences, 2017)", "key": {"[1]": {"test_system": "inflammation induced by 12-O-tetradecanoylphorbol-13-acetate (TPA)", "set-up": "method as in PMID 16204964, PMID 14745168", "details": "mice; cited from earlier work"}, "[2]": {"test_system": "NHDF cells", "assay": "Skin type I collagen synthesis promoting assay (ELISA, with MTT)", "type": "cell-based, human", "details": "fold of control", "method": "The assay for measuring the promotion of skin collagen synthesis was described by Kishikawa et al.. Adult NHDF cells (Lonza, Tokyo) were routinely maintained in 10% FBS and 1% antibiotic-antimycotic (Invitrogen) in Dulbecco’s modified Eagle’s medium (DMEM, Wako). After growing to confluence, cells at a density of 5 × 10^3 cells/well were seeded on 96-well plates for 24 h before the treatment. The medium was replaced with a mixture of 1 μL of sample solution (DMSO < 0.5% per well) and 99 μL of DMEM supplemented with 0.5% FBS. After 72 h of cultivation, the amount of collagen in the medium was measured using a human type I collagen enzyme-linked immunosorbent assay (ELISA) kit (ACEL, Kanagawa, Japan). The amount of collagen production was calculated using a standard curve prepared by measurement by the same ELISA. The cells remaining in the 96-well plate were subjected to an MTT assay. Ascorbic acid (100 μM, Wako) was used as a positive control."}, "[3]": {"test_system": "RBL-2H3 cells", "assay": "Cell viability of RBL-2H3 cells (parallel MTT)", "type": "cell-based, rat", "details": "25 μg/ml, RBL-2H3 cells", "method": "(§1) The anti-allergy assay was based mostly on the methods described by Zhu et al. and Yun et al. with slight modification. Rat basophilic leukemia (RBL-2H3) cells were obtained from the Riken Bio-resource Center Cell Bank (Tsukuba, Japan). RBL-2H3 cells were incubated in EMEM medium containing 10% FBS and 1% antibiotics–antimycotics at 37 °C. The cells were seeded on a 96-well plate (2 × 10^5 cells/well). After 24 h of incubation, the medium was supplemented with 0.5 μg/mL anti-DNP (dinitrophenol) mouse immunoglobulin E (IgE) (Sigma-Aldrich). After an additional 24 h of incubation, the medium was replaced with 100 μL of Tyrode buffer. The sample dissolved in DMSO (<0.5% per well) was added, and the cell plate was incubated again for 30 min, then replaced with 100 μL of tyrode buffer containing 50 μg/mL DNP-bovine serum albumin (BSA) (Invitrogen, Carlsbad, CA, USA). After 1 h of incubation, 50 μL of the supernatant was collected from each well and mixed with 50 μL of substrate solution (p-nitrophenyl-N-acetyl-β-glucosaminide, 2 mM; Sigma-Aldrich) in a new 96-well plate. The mixture was incubated at room temperature on a shaker for 3 h. Finally, 100 μL of stop solution was added, and the absorbance was read at 405 nm. A parallel MTT experiment was performed to measure the cell viability. The MTT experiment was done exactly as described."}, "[4]": {"test_system": "Propionibacterium acnes", "assay": "Anti-bacterial assay (growth inhibition, MIC/MBC by broth microdilution)", "type": "cell-based", "method": "The antibacterial assay was based mostly on the methods described by Tanaka et al. with slight modification. Propionibacterium acne (NBRC 107605) was used for the antibacterial assay. A single colony of the test strain was taken and 5 mL of Gifu anaerobic medium (GAM) broth (Nissui, Tokyo) was added to it. This culture was incubated at 37 °C for 30 h. It was then added to the bacterial suspension to prepare a bacterial concentration at 10^5 CFU/mL. The bacterial solution was used for the subsequent antibacterial assay. Each compound was dissolved in DMSO, and benzalkonium chloride (Wako) was used as a positive control. The plate was incubated at 37 °C for 30 h. Finally, bacterial growth was measured by a microplate reader at 630 nm. The MIC and MBC were evaluated by the standard broth microdilution method."}, "[5]": {"test_system": "Epstein–Barr virus early antigen", "set-up": "method as in PMID 16204964, PMID 14745168", "details": "cited from earlier work"}, "[6]": {"test_system": "B16 melanoma cells", "assay": "Anti-melanogenesis assay (melanin content)", "type": "cell-based, mouse", "method": "(§2) This assay was performed as described by Arung et al.. The mouse melanoma cell line B16 was obtained from the Riken Bioresource Center Cell Bank (Tsukuba, Japan). The B16 melanoma cells were maintained in Eagle’s Minimal Essential Medium (EMEM, Nissui Chemical, Tokyo) supplemented with 10% (v/v) fetal bovine serum (FBS; Gibco, Carlsbad, CA, USA) and 0.09 mg/mL theophylline (Sigma-Aldrich, St. Louis, MO, USA). […] After 24 h, test samples were dissolved in DMSO (<0.2% per well) and sample solution were added to each well. Arbutin (Tokyo Kasei Kogyo, Tokyo) was used as a positive control. The cells were incubated for an additional 48 h, and then the medium was replaced with fresh medium containing each sample again. After 24 h, the melanin content and the cell viability were measured using a microplate reader (BioTek-ELX800, BioTek Instruments, Winooski, VT, USA) at 405 nm and 570 nm, respectively. Cell viability was measured using the MTT (3-(4,5-dimethylthiazol-2-yl)-2,5-diphenyltetrazolium bromide) method."}, "[7]": {"test_system": "B16 melanoma cells", "assay": "Cell viability of B16 melanoma cells (MTT)", "details": "for Inhibition rate (100% − cell viability): B16 cells", "method": "as §2"}, "[8]": {"test_system": "RBL-2H3 cells", "assay": "β-hexosaminidase release from IgE-stimulated RBL-2H3 mast cells", "type": "cell-based, rat", "method": "as §1"}, "[9]": {"assay": "Cell viability of RBL-2H3 cells (parallel MTT)", "type": "cell-based, rat", "details": "rat; 25 μg/ml, RBL-2H3 cells; read-out: Cell viability", "method": "as §1"}, "[10]": {"assay": "Cell viability of B16 melanoma cells (MTT)", "details": "mouse, B16 melanoma cells", "method": "as §2"}, "[11]": {"test_system": "mushroom tyrosinase", "assay": "Tyrosinase inhibition assay", "type": "biochemical", "method": "Tyrosinase inhibition activity was evaluated by using L-tyrosine and L-DOPA as substrates, as described. Briefly, 333 μL of 2.5 mM L-tyrosine or L-DOPA solution (Sigma-Aldrich) was mixed with 600 μL of 0.1 M phosphate buffer (pH 6.8) and incubated at 25 °C. Then, 33 μL of the sample solution (dissolved in DMSO in various concentrations) and 33 μL of 1380 units/mL mushroom tyrosinase (Sigma-Aldrich) were added to the mixture. The optical density was measured at 475 nm up to the appropriate time. Kojic acid (Sigma-Aldrich) was used as the positive control; the final concentration is 3.3 μg/mL."}}, "note": "Values joined by “and” are separate entries in the source; they are usually repeats but may differ in a detail not shown here. Identical values can stand only once. Like-named read-outs stand apart in the source and are kept apart here.", "data": [{"smiles": "C[C@H]1[C@H](C)CC[C@]2(C(=O)O)CC[C@]3(C)C(=CC[C@@H]4[C@@]5(C)C[C@@H](O)[C@@H](O)C(C)(C)[C@@H]5CC[C@]43C)[C@H]12", "note": "[Compound 9, 3-epicorosolic acid]", "values": [{"measurement": "inhibitory activity against TPA-induced inflammation (in words)", "setting": "[1]", "result": "significant inhibitory activity"}, {"measurement": "CP/CV value (collagen production %/cell viability %)", "setting": "[2]; 1 μg/mL", "result": 1.2}, {"measurement": "CP/CV value (collagen production %/cell viability %)", "setting": "[2]; 5 μg/mL", "result": 1.3}, {"measurement": "Cell viability", "setting": "[3]", "result": "98.0 ± 7.7", "unit": "%"}, {"measurement": "Inhibition Rate (P. acnes growth)", "setting": "[4]; concentration 100 μg/mL", "result": "– (no inhibition)"}, {"measurement": "inhibitory activity against TPA-induced Epstein–Barr virus early antigen activation (in words)", "setting": "[5]", "result": "significant inhibitory activity"}, {"measurement": "Inhibition rate (100% − melanin synthesis)", "setting": "[6]; 2.5 μg/ml, B16 cells", "result": "1.0 ± 5.4", "unit": "%"}, {"measurement": "Inhibition rate (100% − melanin synthesis)", "setting": "[6]; 5 μg/ml, B16 cells", "result": "0.0 ± 5.3", "unit": "%"}, {"measurement": "Inhibition rate (100% − melanin synthesis)", "setting": "[6]; 20 μg/ml, B16 cells", "result": "7.8± 0.9", "unit": "%"}, {"measurement": "IC50 melanin", "setting": "[6]; B16 melanoma cells", "result": "> 20.0", "unit": "µg/mL"}, {"measurement": "IC50", "setting": "[6]; B16 melanoma cells, read-out: IC50 (melanin synthesis)", "result": "> 42.3", "unit": "µM"}, {"measurement": "Inhibition rate (100% − cell viability)", "setting": "[7]; 2.5 μg/ml", "result": "0.0 ± 10.3", "unit": "%"}, {"measurement": "Inhibition rate (100% − cell viability)", "setting": "[7]; 5 μg/ml", "result": "0.0 ± 11.8", "unit": "%"}, {"measurement": "Inhibition rate (100% − cell viability)", "setting": "[7]; 10 μg/ml", "result": "3.4 ± 4.1", "unit": "%"}, {"measurement": "Inhibition rate (100% − cell viability)", "setting": "[7]; 20 μg/ml", "result": "14.8 ± 4.1", "unit": "%"}, {"measurement": "CC50 cell viability", "setting": "[7]; B16 melanoma cells, MTT", "result": "> 20.0", "unit": "µg/mL"}, {"measurement": "CC50", "setting": "[7]; read-out: CC50 (cell viability), B16 melanoma cells, MTT", "result": "> 42.3", "unit": "µM"}, {"measurement": "Inhibition Rate (β-hexosaminidase release)", "setting": "[8]; 1 μg/mL", "result": "8.9 ± 5.2", "unit": "%"}, {"measurement": "Inhibition Rate (β-hexosaminidase release)", "setting": "[8]; 5 μg/mL", "result": "33.7 ± 6.9", "unit": "%"}, {"measurement": "Inhibition Rate (β-hexosaminidase release)", "setting": "[8]; 12.5 μg/mL", "result": "50.7 ± 3.2", "unit": "%"}, {"measurement": "Inhibition Rate (β-hexosaminidase release)", "setting": "[8]; 25 μg/mL", "result": "54.4 ± 4.9", "unit": "%"}, {"measurement": "IC50", "setting": "[8]; IgE-stimulated RBL-2H3 cells, read-out: IC50 (β-hexosaminidase release)", "result": 14.2, "unit": "µM"}]}, {"smiles": "CC1(C)CC[C@]2(C(=O)O)CC[C@]3(C)C(=CC[C@@H]4[C@@]5(C)CC[C@H](O)C(C)(C)[C@@H]5CC[C@]43C)[C@@H]2C1", "note": "[Compound 2, Oleanolic acid]", "values": [{"measurement": "viability at 25 μg/ml", "setting": "[9]", "result": "102 ± 6.2", "unit": "%"}, {"measurement": "MBC", "setting": "[4]; Cutibacterium acnes, P. acnes, broth microdilution, read-out: MBC", "result": 200, "unit": "µg/mL"}, {"measurement": "MIC", "setting": "[4]; Cutibacterium acnes, P. acnes, broth microdilution, read-out: MIC", "result": 100, "unit": "µg/mL"}, {"measurement": "inhibition at 100 µg/mL", "setting": "[4]; Cutibacterium acnes, concentration 100 μg/mL, read-out: Inhibition Rate (P. acnes growth)", "result": "100.4 ± 0.8", "unit": "%"}, {"measurement": "activity against P. acnes (in words)", "setting": "[4]; at their maximum solubility", "result": "active"}, {"measurement": "S.I (selectivity index, CC50 value/IC50 value)", "setting": "[6]; B16 melanoma cells", "result": 1.5}, {"measurement": "inhibition at 1 µg/mL", "setting": "[6]; Mus musculus, 1 μg/ml, B16 cells, read-out: Inhibition rate (100% − melanin synthesis)", "result": "9.5 ± 4.6", "unit": "%"}, {"measurement": "inhibition at 2.5 µg/mL", "setting": "[6]; Mus musculus, 2.5 μg/ml, B16 cells, read-out: Inhibition rate (100% − melanin synthesis)", "result": "27.8 ± 4.8", "unit": "%"}, {"measurement": "inhibition at 5 µg/mL", "setting": "[6]; Mus musculus, 5 μg/ml, B16 cells, read-out: Inhibition rate (100% − melanin synthesis)", "result": "33.5 ± 6", "unit": "%"}, {"measurement": "inhibition at 10 µg/mL", "setting": "[6]; Mus musculus, 10 μg/ml, B16 cells, read-out: Inhibition rate (100% − melanin synthesis)", "result": "45.9 ± 1.5", "unit": "%"}, {"measurement": "inhibition at 20 µg/mL", "setting": "[6]; Mus musculus, 20 μg/ml, B16 cells, read-out: Inhibition rate (100% − melanin synthesis)", "result": "58.6 ± 2.3", "unit": "%"}, {"measurement": "IC50", "setting": "[6]; Mus musculus, B16 melanoma cells, read-out: IC50 (melanin synthesis)", "result": 26.8, "unit": "µM"}, {"measurement": "IC50", "setting": "[6]; Mus musculus, B16 melanoma cells, read-out: IC50 melanin", "result": 12.2, "unit": "µg/mL"}, {"measurement": "CC50 at 72 h", "setting": "[10]", "result": "18.2 µg/mL and 39.9 µM"}, {"measurement": "Inhibition rate (100% − cell viability)", "setting": "[7]; 1 μg/ml", "result": "4.9 ± 4.6", "unit": "%"}, {"measurement": "Inhibition rate (100% − cell viability)", "setting": "[7]; 2.5 μg/ml", "result": "7.8 ± 4.1", "unit": "%"}, {"measurement": "Inhibition rate (100% − cell viability)", "setting": "[7]; 5 μg/ml", "result": "17.0 ± 6.2", "unit": "%"}, {"measurement": "Inhibition rate (100% − cell viability)", "setting": "[7]; 10 μg/ml", "result": "27.4 ± 7.0", "unit": "%"}, {"measurement": "Inhibition rate (100% − cell viability)", "setting": "[7]; 20 μg/ml", "result": "54.9 ± 2.3", "unit": "%"}, {"measurement": "inhibition at 25 µg/mL", "setting": "[8]; Rattus norvegicus, RBL-2H3, 25 μg/mL, read-out: Inhibition Rate (β-hexosaminidase release)", "result": "5.8 ± 6.7", "unit": "%"}, {"measurement": "inhibitory effect on tyrosinase (in words)", "setting": "[11]; L-DOPA as substrate", "result": "no inhibitory effect"}, {"measurement": "inhibitory activity on tyrosinase (in words)", "setting": "[11]; L-tyrosine as substrate, relatively high concentrations", "result": "moderate inhibitory activity"}]}]}
